Tests used:
[1] = system: wheat rust fungus (Puccinia recondita); experiment: Test Example 4: foliar spray of flowable formulations on potted wheat, wheat rust lesion area; assay type: in vivo; settings: wheat (cultivar. Shirogane), single use
Protocol: Five (5) parts of the present compound 1-1, 35 parts of a mixture of white carbon and ammonium polyoxyethylene alkyl ether sulfate (the weight ratio of 1:1) and […] of water were mixed, and the mixture was then finely-ground by a wet grinding method to obtain a flowable formulation comprising the present compound 1-1. Separately, the flowable formulation comprising the present compound 2-1 was prepared according to the above-mentioned similar method except that the present compound 2-1 was used instead of the present compound 1-1 to form a flowable formulation comprising the present compound 2-1.
Each of the above-mentioned respective flowable formulations, and the flowable formulation comprising the present compound 1-1 and the present compound 2-1 that was prepared according to the above-mentioned Formulation Example 3 was diluted with water such that each concentration of the respective compounds in the dilution solutions was adjusted to that indicated in Table 6, to prepare the dilution solutions, respectively.
A plastic pot was filled with soil, and thereto wheat (cultivar. Shirogane) was seeded, and the plants were grown in a greenhouse for ten days. […]
From each of the lesion area of the treated group and the untreated group, respectively, the efficacy of the treated group was calculated by the below-mentioned Equation 2. […]

[2] = system: wheat leaf blight fungus; experiment: Test Example 3: growth of wheat leaf blight fungus in YBG medium, microtiter plate, absorbance at 550 nm; assay type: cell-based, Mycosphaerella graminicola; settings: single use, 18° C., six days
Protocol: The present compound 1-1 or the present compound 2-1 was dissolved into dimethyl sulfoxide such that each concentration of the present compound 1-1 or the present compound 2-1 was adjusted to one hundred fifty times as much as the concentration indicated in the below-mentioned Table 5. The resultant agent solution was dispensed into a microtiter plate (with 96 wells) in 1 μl portion thereof per well. One hundred forty nine (149) μl of YBG medium. (which was prepared by dissolving 10 g of yeast extract, 10 g of Bacto Peptone, and 20 mL of glycerol into 1 L of water, followed by sterilizing the medium) was dispensed into the wells to which the agent solution(s) was/were dispensed. The plate was cultivated at 18° C. for six days, thereby allowing wheat leaf blight fungus to undergo proliferation, and the absorbance at 550 nm of each well of the micro titer plate was then measured to examine a degree of growth of the wheat leaf blight fungus (hereinafter referred to as “treated group”).
Whereas, wheat leaf blight fungus was proliferated similarly to the case of the treated group except that dimethyl sulfoxide was used instead of the agent solution, and the degree of the growth was examined (hereinafter referred to as “untreated group”). The efficacy was calculated from the respective obtained degree of growth by the below-mentioned “Equation 1”.
Efficacy (%)=100×(X−Y)/X Equation 1 […]

For `Cc1nnc(Cl)c(-c2c(F)cccc2F)c1-c1ccccc1` [Present compound 1-1], the “Efficacy (%)” value ([1]; concentration 0.0001 ppm) was 20%, the “Efficacy (%)” value ([1]; concentration 0.01 ppm) was 31% and the “Efficacy (%)” value ([2]; concentration in medium 0.005 ppm) was 4%. The “Efficacy (%)” value ([2]; concentration in medium 0.1 ppm) was 75%.

From patent US20190000081A1, “PLANT DISEASE CONTROL COMPOSITION AND PLANT DISEASE CONTROL METHOD” (SUMITOMO CHEMICAL COMPANY, LIMITED, priority 2015, published 2019)
